Assay results reported in patent US20130029928A1 (priority 2010, published 2013).
Where two headings read alike, the source gives them in different places.

Experiment: Phase I study CXR1002-001: plasma pharmacokinetics (LC-MS/MS)
Type: in vivo, human
Details: human, plasma, oral; for concentration at 168 h: 168 hr (Day 8)
Source text: PK samples, PD (fasting) samples, blood glucose, and blood triglyceride samples, were taken over a 6-week period.
Dose limiting toxicity (DLT) will be based on the toxicity assessments over the first 3-week period of the repeat dosing schedule. PK samples (single blood sample) were taken on the following basis: • Every 6 weeks during the repeat dosing phase • If dosing is interrupted or stopped, samples will be taken at intervals according to patient convenience • PK sampling for safety evaluation may take place at any time, as clinically indicated
Plasma samples were collected after the single 50 mg dose at the following timepoints: Pre-dose, and then 0.25, 0.5, 0.75, 1, 1.5, 2, 3, 4, 6, 24, 48, and 72 hours after administration and then once weekly at weeks 2, 3, 4, 5, and 6 (days 8, 15, 22, 29, and 36). For patients treated with the weekly repeat dose, plasma samples were collected at the following timepoints: Pre-dose and then 2, 3, 4 and 24 hours after administration for a total of 6 weeks. Thereafter a single sample was collected every 6 weeks for monitoring of exposure during long term treatment. Plasma samples were processed at site and stored at −80° C. prior to batch shipment to the analytical laboratory.

[1] = 50 mg, Patient 004 Dose 50 mg, read-out: Concentration
[2] = 100 mg, Patient 005 Dose 100 mg, read-out: Concentration

Structure (SMILES): O=C(O)C(F)(F)C(F)(F)C(F)(F)C(F)(F)C(F)(F)C(F)(F)C(F)(F)F [CXR1002]
- concentration at 0.5 h (50 mg, Patient 003 Dose 50 mg, 0.5 hr): 11.3 µM
- concentration at 0.75 h (50 mg, Patient 003 Dose 50 mg, 0.75 hr): 17.1 µM
- concentration at 1 h (50 mg, Patient 003 Dose 50 mg, 1 hr): 20.7 µM
- concentration at 1.5 h (50 mg, Patient 003 Dose 50 mg, 1.5 hr): 24.6 µM
- concentration at 2 h (50 mg, Patient 003 Dose 50 mg, 2 hr, read-out: Concentration): 24.5 µM
- concentration at 3 h (50 mg, Patient 003 Dose 50 mg, read-out: Concentration): 21.2 µM
- concentration at 4 h (50 mg, Patient 003 Dose 50 mg, 4 hr, read-out: Concentration): 18 µM
- concentration at 24 h (50 mg, Patient 003 Dose 50 mg, 24 hr, read-out: Concentration): 19.5 µM
- concentration at 48 h (50 mg, Patient 003 Dose 50 mg, 48 hr): 18.1 µM
- concentration at 72 h (50 mg, Patient 003 Dose 50 mg, 72 hr): 18.4 µM
- concentration at 192 h (50 mg, Patient 003 Dose 50 mg, 192 hr (Day 8), read-out: Concentration): 8.6 µM
- concentration at 360 h (50 mg, Patient 003 Dose 50 mg, 360 hr (Day 15), read-out: Concentration): 7.2 µM
- concentration at 528 h (50 mg, Patient 003 Dose 50 mg, 528 hr (Day 22), read-out: Concentration): 6.5 µM
- concentration at 696 h (50 mg, Patient 003 Dose 50 mg, 696 hr (Day 29), read-out: Concentration): 5 µM
- concentration at 864 h (50 mg, Patient 003 Dose 50 mg, 864 hr (Day 36), read-out: Concentration): 6.5 µM
- concentration at 0 hr (50 mg, Patient 004 Dose 50 mg, 0 hr): 0.1 µM
- concentration at 2 hr (50 mg, Patient 004 Dose 50 mg, 2 hr, read-out: Concentration): 19.9 µM
- concentration at 4 hr (50 mg, Patient 004 Dose 50 mg, 4 hr, read-out: Concentration): 19.3 µM
- concentration at 24 hr (50 mg, Patient 004 Dose 50 mg, 24 hr (Day 2), read-out: Concentration): 14.4 µM
- concentration at 168 h [1]: 12.8 µM
- concentration at 170 h [1]: 35.7 µM
- concentration at 171 h [1]: 40.4 µM
- concentration at 172 h [1]: 36 µM
- concentration at 192 h (50 mg, Patient 004 Dose 50 mg, 192 hr (Day 9), read-out: Concentration): 22.5 µM
- concentration at 336 hr (50 mg, Patient 004 Dose 50 mg, 336 hr (Day 15), read-out: Concentration): 21.8 µM
- concentration at 338 hr (50 mg, Patient 004 Dose 50 mg, 338 hr, read-out: Concentration): 31.1 µM
- concentration at 339 hr (50 mg, Patient 004 Dose 50 mg, 339 hr, read-out: Concentration): 38.8 µM
- concentration at 340 hr (50 mg, Patient 004 Dose 50 mg, 340 hr, read-out: Concentration): 40.6 µM
- concentration at 360 hr (50 mg, Patient 004 Dose 50 mg, 360 hr (Day 16), read-out: Concentration): 38.8 µM
- concentration at 504 h (50 mg, Patient 004 Dose 50 mg, 504 hr (Day 22), read-out: Concentration): 33.4 µM
- concentration at 506 h (50 mg, Patient 004 Dose 50 mg, 506 hr, read-out: Concentration): 46.3 µM
- concentration at 507 h (50 mg, Patient 004 Dose 50 mg, 507 hr, read-out: Concentration): 50.4 µM
- concentration at 508 h (50 mg, Patient 004 Dose 50 mg, 508 hr, read-out: Concentration): 47.9 µM
- concentration at 528 h (50 mg, Patient 004 Dose 50 mg, 528 hr (Day 23), read-out: Concentration): 50 µM
- concentration at 672 hr (50 mg, Patient 004 Dose 50 mg, 672 hr (Day 29), read-out: Concentration): 52.3 µM
- concentration at 674 hr (50 mg, Patient 004 Dose 50 mg, 674 hr, read-out: Concentration): 65.8 µM
- concentration at 675 hr (50 mg, Patient 004 Dose 50 mg, 675 hr, read-out: Concentration): 61.7 µM
- concentration at 676 hr (50 mg, Patient 004 Dose 50 mg, 676 hr, read-out: Concentration): 56.7 µM
- concentration at 696 hr (50 mg, Patient 004 Dose 50 mg, 696 hr (Day 30), read-out: Concentration): 77.5 µM
- concentration at 840 h (50 mg, Patient 004 Dose 50 mg, 840 hr (Day 36), read-out: Concentration): 63 µM
- concentration at 842 h (50 mg, Patient 004 Dose 50 mg, 842 hr, read-out: Concentration): 78.6 µM
- concentration at 843 h (50 mg, Patient 004 Dose 50 mg, 843 hr, read-out: Concentration): 80.5 µM
- concentration at 864 h (50 mg, Patient 004 Dose 50 mg, 864 hr (Day 37), read-out: Concentration): 81.1 µM
- half-life (50 mg, after a single dose, 6 week sampling period, read-out: half-life of elimination): > 42 days
- concentration at 0 h (100 mg, Patient 005 Dose 100 mg, 0 hr): 0.23 µM
- concentration at 2 h (100 mg, Patient 005 Dose 100 mg, 2 hr, read-out: Concentration): 19.8 µM
- concentration at 3 h [2]: 23 µM
- concentration at 4 h (100 mg, Patient 005 Dose 100 mg, 4 hr, read-out: Concentration): 23.7 µM
- concentration at 24 h (100 mg, Patient 005 Dose 100 mg, 24 hr (Day 2), read-out: Concentration): 19.9 µM
- concentration at 168 h [2]: 19 µM
- concentration at 170 h [2]: 42.9 µM
- concentration at 171 h [2]: 50.8 µM
- concentration at 172 h [2]: 45.7 µM
- concentration at 192 h (100 mg, Patient 005 Dose 100 mg, 192 hr (Day 9), read-out: Concentration): 34.4 µM
- concentration at 336 h (100 mg, Patient 005 Dose 100 mg, 336 hr (Day 15), read-out: Concentration): 47.8 µM
- concentration at 338 h (100 mg, Patient 005 Dose 100 mg, 338 hr, read-out: Concentration): 80.2 µM
- concentration at 339 h (100 mg, Patient 005 Dose 100 mg, 339 hr, read-out: Concentration): 70.1 µM
- concentration at 340 h (100 mg, Patient 005 Dose 100 mg, 340 hr, read-out: Concentration): 53.9 µM
